Test [1] concerns the target human GLP-1R (Homo sapiens (Human), UniProt P43220, L260F). Put plainly: CHO GLP-1R Clone C6—Assay 2: HTRF cAMP cell-based functional agonist assay (low GLP-1R density). Particulars: for EC50: CHO GLP-1R Clone C6, cAMP HTRF, geometric mean; for Emax: CHO GLP-1R Clone C6, relative to saturating concentration of full agonist GLP-1 (1 μM), arithmetic mean, read-out: Assay 2 Emax (%). On the technique in general: Time-resolved FRET reads energy transfer from a long-lived donor to a nearby acceptor.

For test [2], the target named is human GLP-1R (Homo sapiens, UniProt P43220, G168S). Put plainly: CHO GLP-1R Clone H6—Assay 1: HTRF cAMP cell-based functional agonist assay (high GLP-1R density). The following applies: for EC50: read-out: Assay 1 EC50, CHO GLP-1R Clone H6, cAMP HTRF, geometric mean; for Emax: read-out: Assay 1 Emax (%), CHO GLP-1R Clone H6, relative to saturating concentration of full agonist GLP-1 (1 μM), arithmetic mean.
Sequence of human GLP-1R (Homo sapiens, UniProt P43220, G168S) (P43220 24-463 G168S limits assumed): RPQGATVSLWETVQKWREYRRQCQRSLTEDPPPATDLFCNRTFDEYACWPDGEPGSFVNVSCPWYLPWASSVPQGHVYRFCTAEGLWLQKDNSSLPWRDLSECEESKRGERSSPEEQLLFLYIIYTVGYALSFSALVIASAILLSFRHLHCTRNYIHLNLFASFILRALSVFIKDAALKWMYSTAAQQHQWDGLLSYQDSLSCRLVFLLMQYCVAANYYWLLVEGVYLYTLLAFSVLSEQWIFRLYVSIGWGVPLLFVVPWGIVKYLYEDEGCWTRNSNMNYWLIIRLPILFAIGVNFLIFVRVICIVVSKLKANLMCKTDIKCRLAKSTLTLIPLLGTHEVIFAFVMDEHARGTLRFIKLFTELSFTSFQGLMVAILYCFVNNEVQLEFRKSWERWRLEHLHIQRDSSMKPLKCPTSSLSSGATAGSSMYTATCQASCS

Sequence of human GLP-1R (Homo sapiens (Human), UniProt P43220, L260F) (P43220 24-463 L260F): as the sequence (P43220 24-463 G168S limits assumed) above, with S145G, L237F counted along it

For `C[C@H]1CN(c2cccc(OCc3ccc(C#N)cc3F)n2)CCN1Cc1nc2ccc(C(=O)O)cc2n1Cc1cnnn1C` [Example 10A-23], on human GLP-1R [1], it took 760 nM to reach a half-maximal effect (EC50) and the Emax turned out to be 91%. Besides, on human GLP-1R [2], the EC50 was 38 nM and the maximum response (Emax) was found to be 76%.
For the compound `N#Cc1ccc(COc2cccc(C3CCN(Cc4nc5ccc(C(=O)O)nc5n4Cc4cnco4)CC3)n2)c(F)c1` [Example 10A-24], on human GLP-1R [1], the EC50 amounted to 130 nM and the Emax was determined as 94%. Further, at human GLP-1R [2], the EC50 was determined as 5.7 nM and the maximal effect (Emax) is 78%.
`C[C@H]1CN(c2cccc(OCc3ccc(C#N)cc3F)n2)CCN1Cc1nc2ccc(C(=O)O)cc2n1Cc1cncn1C` [Example 10A-25]: at human GLP-1R [1], the response was half-maximal at 41 nM (EC50) and the Emax worked out at 99%. At human GLP-1R [2], the EC50 amounted to 1.7 nM and the Emax amounted to 82%.
Regarding `COC1(Cn2c(CN3CCC(c4cccc(OCc5ccc(Cl)cc5F)n4)CC3)nc3ccc(C(=O)O)cc32)CCC1` [Example 10A-26, 2-[(4-{6-[(4-chloro-2-fluorobenzyl)oxy]pyridin-2-yl}piperidin-1-yl)methyl]-1-[(1-methoxycyclobutyl)methyl]-1H-benzimidazole-6-carboxylic acid], the values for the EC50 at human GLP-1R [1] and at human GLP-1R [2] were 190 nM and 7 nM, respectively. Further, the figures for the Emax on human GLP-1R [1] and at human GLP-1R [2] were 80% and 59%, respectively.
Take `CCn1cncc1Cn1c(CN2CCC(c3cccc(OCc4ccc(F)cc4F)n3)CC2)nc2ccc(C(=O)O)cc21` [Example 10A-32, 2-[(4-{6-[(2,4-difluorobenzyl)oxy]pyridin-2-yl}piperidin-1-yl)methyl]-1-[(1-ethyl-1H-imidazol-5-yl)methyl]-1H-benzimidazole-6-carboxylic acid]: on human GLP-1R [1], a half-maximal response (EC50) required 5 nM and the Emax came out at 94%. Besides, on human GLP-1R [2], the EC50 was 0.47 nM and the Emax is 77%.
In the case of `O=C(O)c1ccc2nc(CN3CCN(c4cccc(OCc5ccc(Cl)cc5F)n4)CC3)n(Cc3ncco3)c2c1` [Example 10A-33, 2-[(4-{6-[(4-chloro-2-fluorobenzyl)oxy]pyridin-2-yl}piperazin-1-yl)methyl]-1-(1,3-oxazol-2-ylmethyl)-1H-benzimidazole-6-carboxylic acid], on human GLP-1R [1], a half-maximal effect (EC50) was put at 24 nM and the Emax came out at 91%. Besides, at human GLP-1R [2], the concentration giving a half-maximal response (EC50) turned out to be 1.5 nM and the maximum response (Emax) turned out to be 73%.
For `N#Cc1ccc(COc2cccc(N3CCN(Cc4nc5ccc(C(=O)O)cc5n4Cc4ncco4)CC3)n2)c(F)c1` [Example 10A-34, 2-[(4-{6-[(4-cyano-2-fluorobenzyl)oxy]pyridin-2-yl}piperazin-1-yl)methyl]-1-(1,3-oxazol-2-ylmethyl)-1H-benzimidazole-6-carboxylic acid] the same measures were 29 nM, 95%, 1.5 nM and 80%.
As to `CCn1cncc1Cn1c(CN2CCN(c3cccc(OCc4ccc(C#N)cc4F)n3)CC2)nc2ccc(C(=O)O)cc21` [Example 10A-35, 2-[(4-{6-[(4-cyano-2-fluorobenzyl)oxy]pyridin-2-yl}piperazin-1-yl)methyl]-1-[(1-ethyl-1H-imidazol-5-yl)methyl]-1H-benzimidazole-6-carboxylic acid], on human GLP-1R [1], a half-maximal response (EC50) required 3.8 nM and the Emax amounted to 93%. Also, on human GLP-1R [2], the EC50 was 0.3 nM and the maximal response (Emax) was determined as 93%.
Consider `Cn1cncc1Cn1c(CN2CCN(c3cccc(OCc4ccc(Cl)cc4F)n3)CC2)nc2ccc(C(=O)O)cc21` [Example 10A-36, 2-[(4-{6-[(4-chloro-2-fluorobenzyl)oxy]pyridin-2-yl}piperazin-1-yl)methyl]-1-[(1-methyl-1H-imidazol-5-yl)methyl]-1H-benzimidazole-6-carboxylic acid], for which the EC50 came to 13 nM on human GLP-1R [1] and 0.33 nM on human GLP-1R [2]. Moreover, the Emax at human GLP-1R [1] came out at 110%; at human GLP-1R [2], 82%.
On to `Cn1cncc1Cn1c(CN2CCN(c3cccc(OCc4ccc(C#N)cc4F)n3)CC2)nc2ccc(C(=O)O)cc21` [Example 10A-37, 2-[(4-{6-[(4-cyano-2-fluorobenzyl)oxy]pyridin-2-yl}piperazin-1-yl)methyl]-1-[(1-methyl-1H-imidazol-5-yl)methyl]-1H-benzimidazole-6-carboxylic acid], for which, at human GLP-1R [1], the concentration giving a half-maximal response (EC50) came to 23 nM and the maximum response (Emax) stood at 110%. Moreover, on human GLP-1R [2], the EC50 came to 3.4 nM and the maximal effect (Emax) was found to be 86%.
With `O=C(O)c1ccc2nc(CN3CCC(c4cccc(OCc5ccc(Cl)cc5F)n4)CC3)n(Cc3cocn3)c2c1` [Example 10A-41, 2-[(4-{6-[(4-chloro-2-fluorobenzyl)oxy]pyridin-2-yl}piperidin-1-yl)methyl]-1-(1,3-oxazol-4-ylmethyl)-1H-benzimidazole-6-carboxylic acid], on human GLP-1R [1], a half-maximal effect (EC50) was put at 140 nM and the maximal response (Emax) was found to be 82%. On human GLP-1R [2], the concentration giving a half-maximal response (EC50) is 12 nM and the maximum response (Emax) turned out to be 75%.
Regarding `O=C(O)c1ccc2nc(CN3CCC(c4cccc(OCc5ccc(Cl)cc5F)n4)CC3)n(Cc3ncco3)c2c1` [Example 10A-42, 2-[(4-{6-[(4-chloro-2-fluorobenzyl)oxy]pyridin-2-yl}piperidin-1-yl)methyl]-1-(1,3-oxazol-2-ylmethyl)-1H-benzimidazole-6-carboxylic acid], on human GLP-1R [1], a half-maximal response (EC50) required 29 nM and the Emax amounted to 74%. Moreover, at human GLP-1R [2], the EC50 came out at 2.7 nM and the Emax came to 73%.
As to `N#Cc1ccc(COc2cccc(C3CCN(Cc4nc5ccc(C(=O)O)cc5n4Cc4cnco4)CC3)n2)c(F)c1` [Example 10A-43, 2-[(4-{6-[(4-cyano-2-fluorobenzyl)oxy]pyridin-2-yl}piperidin-1-yl)methyl]-1-(1,3-oxazol-5-ylmethyl)-1H-benzimidazole-6-carboxylic acid], on human GLP-1R [1], it took 48 nM to reach a half-maximal effect (EC50) and the Emax worked out at 79%. Also, on human GLP-1R [2], the concentration for a half-maximal effect (EC50) was 4 nM and the Emax amounted to 64%.
For `O=C(O)c1ccc2nc(CN3CCC(c4cccc(OCc5ccc(F)cc5F)n4)CC3)n(Cc3cnco3)c2c1` [Example 10A-44, 2-[(4-{6-[(2,4-difluorobenzyl)oxy]pyridin-2-yl}piperidin-1-yl)methyl]-1-(1,3-oxazol-5-ylmethyl)-1H-benzimidazole-6-carboxylic acid] the same measures were 99 nM, 81%, 6 nM and 73%.
For the compound `O=C(O)c1ccc2nc(CN3CCN(c4cccc(OCc5ccc(Cl)cc5F)n4)CC3)n(Cc3cnco3)c2c1` [Example 10A-45, 2-[(4-{6-[(4-chloro-2-fluorobenzyl)oxy]pyridin-2-yl}piperazin-1-yl)methyl]-1-(1,3-oxazol-5-ylmethyl)-1H-benzimidazole-6-carboxylic acid], at human GLP-1R [1], a half-maximal response (EC50) required 19 nM and the Emax was determined as 75%. On human GLP-1R [2], the EC50 was 1 nM and the Emax was determined as 76%.
For `C[C@H]1CN(c2cccc(OCc3ccc(C#N)cc3F)n2)CCN1Cc1nc2ccc(C(=O)O)cc2n1C[C@@H]1CCO1` [Example 10A-47, 2-{[(2S)-4-{6-[(4-cyano-2-fluorobenzyl)oxy]pyridin-2-yl}-2-methylpiperazin-1-yl]methyl}-1-[(2S)-oxetan-2-ylmethyl]-1H-benzimidazole-6-carboxylic acid], at human GLP-1R [1], the concentration for a half-maximal effect (EC50) came out at 4.4 nM and the Emax was 95%. Further, at human GLP-1R [2], the EC50 was 0.3 nM and the Emax stood at 80%.

What is called EC50 is the concentration at which the effect is half-maximal. Usually Emax stands for the maximal effect, on the per cent scale that the assay sets.

Values taken from US10208019B2, “GLP-1 receptor agonists and uses thereof” (Pfizer Inc., priority 2016, dated 2019).
